This is an account of results in ChEMBL document CHEMBL3045307, “Synthesis, characterization, and urease inhibition of 5-substituted-8-methyl-2H-pyrido[1,2-a]pyrimidine-2,4(3H)-diones” (Med Chem Res, 2012).

In assay [1] the target is Urease (Canavalia ensiformis) (UniProt P07374). Briefly: Inhibition of Canavalia ensiformis (jack bean) urease assessed as ammonia production using urea as substrate at 10 uM after 15 min by indophenol method.
Assay [2] has the same target. Put plainly: Inhibition of Canavalia ensiformis (jack bean) urease assessed as ammonia production using urea as substrate at 1 uM after 15 min by indophenol method.
Assay [3] has the same target. Briefly: Inhibition of Canavalia ensiformis (jack bean) urease assessed as ammonia production using urea as substrate at 0.01 uM after 15 min by indophenol method.
Assay [4] shares this target. Put plainly: Inhibition of Canavalia ensiformis (jack bean) urease assessed as ammonia production using urea as substrate at 100 uM after 15 min by indophenol method.
Assay [5] has the same target. Briefly: Inhibition of Canavalia ensiformis (jack bean) urease assessed as ammonia production using urea as substrate at 0.1 uM after 15 min by indophenol method.

SMILES strings stand for the structures.

Sequence of Urease (Canavalia ensiformis) (P07374 whole entry, looked up): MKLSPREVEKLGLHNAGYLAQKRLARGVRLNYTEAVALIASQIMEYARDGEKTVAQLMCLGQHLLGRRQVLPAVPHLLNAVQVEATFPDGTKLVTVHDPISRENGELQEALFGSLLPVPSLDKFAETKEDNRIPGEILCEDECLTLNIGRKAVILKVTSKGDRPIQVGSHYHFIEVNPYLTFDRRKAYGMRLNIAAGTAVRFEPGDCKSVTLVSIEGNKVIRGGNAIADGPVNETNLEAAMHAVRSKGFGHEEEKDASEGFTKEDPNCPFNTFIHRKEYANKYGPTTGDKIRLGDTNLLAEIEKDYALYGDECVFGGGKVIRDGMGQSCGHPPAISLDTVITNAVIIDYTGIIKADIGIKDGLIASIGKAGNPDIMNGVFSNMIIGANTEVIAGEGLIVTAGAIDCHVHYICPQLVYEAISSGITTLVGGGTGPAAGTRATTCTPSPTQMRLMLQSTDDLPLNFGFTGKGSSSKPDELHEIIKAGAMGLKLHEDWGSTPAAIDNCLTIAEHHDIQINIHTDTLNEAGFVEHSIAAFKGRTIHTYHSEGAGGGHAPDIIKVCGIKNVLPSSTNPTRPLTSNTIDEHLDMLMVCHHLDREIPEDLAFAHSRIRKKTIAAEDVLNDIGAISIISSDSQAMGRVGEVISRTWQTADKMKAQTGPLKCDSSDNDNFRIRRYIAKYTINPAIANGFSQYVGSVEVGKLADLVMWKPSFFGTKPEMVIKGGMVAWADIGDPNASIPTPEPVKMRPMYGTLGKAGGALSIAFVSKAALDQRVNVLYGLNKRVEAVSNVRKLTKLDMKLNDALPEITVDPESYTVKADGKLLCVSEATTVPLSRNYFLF

Regarding `CC1=CC2=NC(=O)/C(=C\NNC(=O)c3ccc(Br)cc3)C(=O)N2C=C1`, the inhibition is 23% in assay [1]; 3% in assay [2]; -8% in assay [3]; 57% in assay [4]; -2% in assay [5].
As for `CC1=CC2=NC(=O)/C(=C\Nc3cccc(F)c3)C(=O)N2C=C1`, the inhibition was found to be 3% in assay [1] and 28% in assay [4].
As to `CC1=CC2=NC(=O)/C(=C\NNC(=O)c3ccc(O)cc3)C(=O)N2C=C1`, the inhibition was 22% in assay [1]; 7% in assay [2]; -5% in assay [3]; 39% in assay [4]; -1% in assay [5].
The corresponding values for `CC1=CC2=NC(=O)/C(=C\NNC(=O)c3ccc(Cl)cc3)C(=O)N2C=C1` are 14%, 6%, -4%, 43% and -2%.
The corresponding values for `CC1=CC2=NC(=O)/C(=C\Nc3ccc([N+](=O)[O-])cn3)C(=O)N2C=C1` are 36%, 23%, 3%, 48% and 6%.
The corresponding values for `CC1=CC2=NC(=O)/C(=C\Nc3ccc(F)cc3)C(=O)N2C=C1` are 21%, 14%, 1%, 35% and 6%.
On to `CC1=CC2=NC(=O)/C(=C\Nc3ccccc3S)C(=O)N2C=C1`, for which the inhibition in assay [1] was determined as 73%; in assay [2], 60%; in assay [3] it was 22%; in assay [4], 97%; in assay [5] it was 28%.
Regarding `CC1=CC2=NC(=O)/C(=C\Nc3ccccc3F)C(=O)N2C=C1`, the inhibition came to 44% in assay [1]; 26% in assay [2]; 3% in assay [3]; 57% in assay [4]; 10% in assay [5].
The corresponding values for `CC(=O)c1ccc(N/C=C2\C(=O)N=C3C=C(C)C=CN3C2=O)cc1` are 5%, 1%, -3%, 18% and -2%.
In the case of `CC1=CC2=NC(=O)/C(=C\NNC(=O)c3ccccc3)C(=O)N2C=C1`, the inhibition is 13% in assay [1]; 6% in assay [2]; -1% in assay [3]; 26% in assay [4]; 1% in assay [5].
Regarding `NC(N)=S`, the inhibition in assay [1] was 21%; in assay [2], 15%; in assay [3] it was 8%; in assay [4], 94%; in assay [5] it was 8%.
Turning to `CC(=O)c1ccccc1N/C=C1\C(=O)N=C2C=C(C)C=CN2C1=O`, the inhibition in assay [1] stood at 54%; in assay [2], 32%; in assay [3] it was 11%; in assay [4] it was 69%; in assay [5] it was 19%.
The corresponding values for `CC(=O)c1cccc(N/C=C2\C(=O)N=C3C=C(C)C=CN3C2=O)c1` are 28%, 8%, -1%, 45% and 3%.
The corresponding values for `CC1=CC2=NC(=O)/C(=C\Nc3ccc(C)cn3)C(=O)N2C=C1` are 48%, 24%, 3%, 57% and 11%.
As to `CC1=CC2=NC(=O)CC(=O)N2C=C1`, the inhibition was found to be 26% in assay [1]; 12% in assay [2]; 1% in assay [3]; 39% in assay [4]; 6% in assay [5].
For the compound `CC1=CC2=NC(=O)/C(=C\Nc3cc(C)ccn3)C(=O)N2C=C1`, the inhibition in assay [1] was found to be 20%; in assay [2], 16%; in assay [3], 1%; in assay [4] it was 33%; in assay [5], 6%.
In the case of `CC1=CC2=NC(=O)/C(=C\Nc3c(C)cc(C)cc3C)C(=O)N2C=C1`, the inhibition in assay [1] was -8%; in assay [2], -1%; in assay [4], 0.2%; in assay [5] it was -6%.
With `CC1=CC2=NC(=O)/C(=C\NNC(=O)c3ccc([N+](=O)[O-])cc3)C(=O)N2C=C1`, the inhibition was 60% in assay [1]; 54% in assay [2]; 6% in assay [3]; 87% in assay [4]; 21% in assay [5].
